This passage reports GI50 and TGI results from PubChem BioAssay (NCI).

The structures appear in SMILES notation.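 Five compound concentrations were applied to cells in 96-well plates for 48 hours; endpoints were derived by simple linear interpolation of the resulting dose-response curve. Abbreviation: GI50, concentration required for 50% inhibition of growth. TGI denotes the concentration required for complete inhibition of growth.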

Some test systems named below: EKVX NSCLC; BT-549 breast; SK-MEL-5 melanoma; A498 renal; MCF7 breast; SK-OV-3 ovarian; SR leukemia; SW-620 colon; UACC-257 melanoma; HCT-15 colon.
Common to all, as to assay: NCI-60 cell line screen, 48 h

As for `CCCCC[C@@H](C/C=C/CCC(=O)NC/C(=C/Cl)[C@H]1C(=O)C(C)(C)C(=O)[C@@H](C)[C@@]1(C)O)OC`, the GI50 in the assay on EKVX NSCLC is 13.5 µM; in the assay on BT-549 breast it was 17.9 µM; in the assay on SK-MEL-5 melanoma, 17.3 µM; with A498 renal it was 26 µM; in the assay with MCF7 breast, 19.2 µM; with SK-OV-3 ovarian, 30.8 µM. Besides, the GI50 is 20.7 µM in the assay with SR leukemia, 20.8 µM with SW-620 colon, 18.4 µM in the assay with UACC-257 melanoma and 17.1 µM in the assay with HCT-15 colon. The TGI with EKVX NSCLC worked out at 30.5 µM; with BT-549 breast, 32.7 µM; in the assay on SK-MEL-5 melanoma it was 32.1 µM; in the assay on A498 renal, 55 µM; in the assay on MCF7 breast, 38.8 µM; in the assay on SK-OV-3 ovarian, 68.7 µM. For the same compound, the TGI turned out to be 41.3 µM in the assay with SR leukemia, 39.3 µM with SW-620 colon, 34.3 µM in the assay on UACC-257 melanoma and 32 µM in the assay with HCT-15 colon.
On to `Cc1ccc(C2=C(Cl)C(=O)C(c3ccc(C)cc3)=C(Cl)C2=O)cc1`, for which the TGI in the assay on EKVX NSCLC, with BT-549 breast, in the assay on SK-MEL-5 melanoma, in the assay with A498 renal, in the assay with MCF7 breast and in the assay on SK-OV-3 ovarian was more than 100 µM in each case. In addition, the TGI in the assay with SR leukemia, with SW-620 colon, in the assay with UACC-257 melanoma and with HCT-15 colon was more than 100 µM throughout.
Consider `CC1=C(CNO)C2=C(C)C3(CC3)[C@@](C)(O)C(=O)C2=C1`, for which the GI50 in the assay with EKVX NSCLC is 2.22 µM; with BT-549 breast it was 1.24 µM; in the assay on SK-MEL-5 melanoma it was 1.68 µM; in the assay with A498 renal it was 1.6 µM; with MCF7 breast, 0.763 µM; with SK-OV-3 ovarian it was 1.13 µM. In addition, the GI50 with SR leukemia was 4.49 µM; in the assay on SW-620 colon, 4.54 µM; with UACC-257 melanoma it was 2.78 µM; with HCT-15 colon, 1.71 µM. The TGI in the assay on EKVX NSCLC amounted to 5.98 µM; in the assay with BT-549 breast, 3.6 µM; with SK-MEL-5 melanoma, 3.22 µM; with A498 renal, 3.28 µM; with MCF7 breast, 6.73 µM; with SK-OV-3 ovarian it was 5.22 µM. Moreover, the TGI with SR leukemia was more than 100 µM; with SW-620 colon it was more than 100 µM; in the assay with UACC-257 melanoma it was 7.64 µM; in the assay on HCT-15 colon, 4.99 µM.
For the compound `COc1cc(N(CCC#N)CCC#N)ccc1/C(N=Nc1ccc(C(=O)O)cc1)=N/NC(=O)c1cc(Br)ccc1O`, the GI50 was 137 µg/mL in the assay with EKVX NSCLC; more than 150 µg/mL with BT-549 breast; 69.7 µg/mL in the assay with SK-MEL-5 melanoma; more than 150 µg/mL in the assay with A498 renal; 57.3 µg/mL with MCF7 breast; 86.2 µg/mL in the assay on SK-OV-3 ovarian. The GI50 in the assay with SR leukemia is 85.4 µg/mL; in the assay with SW-620 colon, more than 150 µg/mL; in the assay on UACC-257 melanoma it was more than 150 µg/mL; in the assay on HCT-15 colon, 35.8 µg/mL. Also, the TGI in the assay on EKVX NSCLC, with BT-549 breast, in the assay with SK-MEL-5 melanoma, in the assay with A498 renal, with MCF7 breast and in the assay with SK-OV-3 ovarian was more than 150 µg/mL throughout. Besides, the TGI was more than 150 µg/mL with SR leukemia, more than 150 µg/mL in the assay with SW-620 colon, more than 150 µg/mL in the assay with UACC-257 melanoma and 95 µg/mL with HCT-15 colon.
On to `CC1(C)CC[C@]2(C(=O)O)CC[C@]3(C)C(=CC[C@@H]4[C@@]5(C)C/C(=C/c6ccco6)C(=O)C(C)(C)[C@@H]5CC[C@]43C)[C@@H]2C1`, for which the GI50 with EKVX NSCLC is 3.62 µM; in the assay with BT-549 breast, 4.01 µM; in the assay on SK-MEL-5 melanoma, 2.51 µM; in the assay on A498 renal, 6.14 µM; with MCF7 breast, 3.18 µM; with SK-OV-3 ovarian, 4.22 µM. Further, the GI50 is 4.04 µM in the assay with SR leukemia, 3.82 µM in the assay on SW-620 colon, 6.24 µM in the assay with UACC-257 melanoma and 2.5 µM in the assay on HCT-15 colon. In addition, the TGI with EKVX NSCLC was determined as 31.1 µM; with BT-549 breast, 23.4 µM; with SK-MEL-5 melanoma, 8.74 µM; in the assay with A498 renal, 45.6 µM; with MCF7 breast it was 23.5 µM; in the assay with SK-OV-3 ovarian it was 79.4 µM. In addition, the TGI in the assay on SR leukemia came out at 52.4 µM; in the assay on SW-620 colon, 18.2 µM; in the assay on UACC-257 melanoma it was 35.6 µM; in the assay with HCT-15 colon, 13.4 µM.
`CC1=C2[C@@H](CC1)[C@]1(C)O[C@@](C3CC3)(C[C@H]1OC(=O)CO)[C@H]2OC(=O)/C=C/c1ccccc1`: the GI50 was 11.5 µM in the assay on EKVX NSCLC; 0.148 µM with BT-549 breast; 16.7 µM in the assay on SK-MEL-5 melanoma; 0.0998 µM in the assay on A498 renal; 13 µM in the assay with MCF7 breast; 15.6 µM in the assay on SK-OV-3 ovarian. For the same compound, the GI50 in the assay with SR leukemia is 13.5 µM; in the assay with SW-620 colon, 19.1 µM; in the assay with UACC-257 melanoma, 17.7 µM; in the assay with HCT-15 colon, 13.6 µM. The TGI with EKVX NSCLC amounted to 25.1 µM; in the assay with BT-549 breast, 7.74 µM; with SK-MEL-5 melanoma, 30.5 µM; with A498 renal, 0.605 µM; in the assay on MCF7 breast, 31.3 µM; in the assay on SK-OV-3 ovarian, 29.6 µM. Also, the TGI amounted to 39.2 µM with SR leukemia, 36.7 µM in the assay on SW-620 colon, 32.9 µM in the assay with UACC-257 melanoma and 29.3 µM with HCT-15 colon.
As to `COc1cc(/C=C2\C(=O)N(C)c3ccccc32)cc(OC)c1OC`, the GI50 in the assay on EKVX NSCLC was 24.3 µM; with BT-549 breast it was 33.4 µM; in the assay with SK-MEL-5 melanoma it was 10.1 µM; in the assay on A498 renal it was 33 µM; in the assay on MCF7 breast it was 20.3 µM; with SK-OV-3 ovarian, 20.9 µM. For the same compound, the GI50 is 6.26 µM with SR leukemia, 13.4 µM in the assay with SW-620 colon, 21.4 µM in the assay with UACC-257 melanoma and 10.3 µM in the assay on HCT-15 colon. Moreover, the TGI with EKVX NSCLC was more than 100 µM; in the assay on BT-549 breast, more than 100 µM; with SK-MEL-5 melanoma, 27.8 µM; in the assay with A498 renal, more than 100 µM; in the assay on MCF7 breast it was more than 100 µM; in the assay on SK-OV-3 ovarian, more than 100 µM. Further, the TGI is 39.7 µM in the assay on SR leukemia, more than 100 µM in the assay with SW-620 colon, 55 µM in the assay on UACC-257 melanoma and 85.5 µM with HCT-15 colon.
